# Where a name gives a salt, the structure may show the parent alone. Read-outs that look alike come from different tables or passages of the source.
# Assays:
# [1] = Characterization of salt forms (XRPD, DSC, TGA, KF, HPLC, NMR/IC); type: physicochemical; details: for Melting onset (DCS, ° C.): Tonset
# Procedure: Salt Forms identified in the investigation (Table 16) were further characterized by XRPD, DCS, TGA, KF, HPLC and ^1H NMR/IC (Table 19).
# About 419 mg of sodium salt Form F was obtained as off-white solid in 76% yield.
# [2] = Equilibration under a temperature cycle (XRPD); type: physicochemical; details: 2-methyltetrahydrofuran, about 8 cycles
# Procedure: The equilibration was executed with a stirring bar on a magnetic stirring plate at a rate of 300 rpm. The obtained suspensions were filtered through a 0.45 µm nylon membrane filter by centrifugation at 14,000 rpm. Solid parts (wet cakes) were investigated by XRPD.
structure (smiles),measurement,setting,value
CCN(C)S(=O)(=O)Nc1ccc(F)c(Oc2ccc3ncn([C@H]4COC5(CCN(C(=O)CC6(O)CCN(c7cc8c(cc7F)c(N7CCC(=O)NC7=O)nn8C)CC6)CC5)C4)c(=O)c3c2)c1C#N [Compound 1 potassium salt Form H],"Enthalpy (DSC, J/g)",[1],33.48 J/g
same,"Melting onset (DCS, ° C.)",[1],Tonset 221.7 °C
same,Weight loss (TGA),[1]; at 170° C.,6.6% at
CCN(C)S(=O)(=O)[N-]c1ccc(F)c(Oc2ccc3ncn([C@H]4COC5(CCN(C(=O)CC6(O)CCN(c7cc8c(cc7F)c(N7CCC(=O)NC7=O)nn8C)CC6)CC5)C4)c(=O)c3c2)c1C#N.[K+] [Compound 1 potassium salt Form G],Weight loss (TGA),[1]; at 170° C.,"4.5% at 170° C.,"
same,Weight loss (TGA),[1]; at 170° C.-230° C.,4.8% at 170° C.-
CCN(C)S(=O)(=O)[N-]c1ccc(F)c(Oc2ccc3ncn([C@H]4COC5(CCN(C(=O)CC6(O)CCN(c7cc8c(cc7F)c(N7CCC(=O)NC7=O)nn8C)CC6)CC5)C4)c(=O)c3c2)c1C#N.[Na+] [Compound 1 sodium salt Form E],"Melting onset (DCS, ° C.)",[1]; listed as Sodium salt Form E,Tonset 228.7 °C
same,Weight loss (TGA),[1]; at 180° C.,10.8% at
same,"Enthalpy (DSC, J/g)",[1]; listed as Sodium salt Form E,26.01 J/g
same,Water content (by KF),[1]; listed as Sodium salt Form E,10.2% by % by weight
CCN(C)S(=O)(=O)Nc1ccc(F)c(Oc2ccc3ncn([C@H]4COC5(CCN(C(=O)CC6(O)CCN(c7cc8c(cc7F)c(N7CCC(=O)NC7=O)nn8C)CC6)CC5)C4)c(=O)c3c2)c1C#N [Compound 1 Form C],Form conversion on temperature cycling,[2],converted to more stable Form B
same,Form conversion on temperature cycling,[2]; listed as Form C,converted to anhydrate Form B
CCN(C)S(=O)(=O)[N-]c1ccc(F)c(Oc2ccc3ncn([C@H]4COC5(CCN(C(=O)CC6(O)CCN(c7cc8c(cc7F)c(N7CCC(=O)NC7=O)nn8C)CC6)CC5)C4)c(=O)c3c2)c1C#N.[Na+] [Compound 1 sodium salt Form D],"Melting onset (DCS, ° C.)",[1]; listed as Sodium salt Form D,Tonset 229.5 °C
same,Weight loss (TGA),[1]; at 150° C.,6.9% at
same,"Enthalpy (DSC, J/g)",[1]; listed as Sodium salt Form D,27.83 J/g
